# Measurements reported in ChEMBL document CHEMBL1201862, “PubChem BioAssay data set” (2004).
# pEC50: −log10 of the molar value. Active and inactive are the calls of the source.
# Assays:
# [1] = target: T1, Trace amine-associated receptor 1 (Homo sapiens, UniProt Q96RJ0); assay: Fluorescence-based cell-based high throughput dose response assay to identify agonists of the human trace amine associated receptor 1 (TAAR1).; type: functional
# [2] = cells; type: functional, cell-based
# [3] = cells; type: functional, cell-based; remark: listed apart in the source
# [4] = target: T1, Trace amine-associated receptor 1; assay: Counterscreen for agonists of the human trace amine associated receptor 1 (hTAAR1): Fluorescence-based cell-based high throughput dose response assay to identify hTAAR1 agonist that also desensitize TAAR1 receptor response.; type: functional
# [5] = target: Beta-galactosidase (Escherichia coli, UniProt Q8VNN2); assay: Dose response counterscreen for EBI2 assay utilizing the enzyme, b-galactosidase.; type: functional
# Sequence of Beta-galactosidase (Q8VNN2 whole entry): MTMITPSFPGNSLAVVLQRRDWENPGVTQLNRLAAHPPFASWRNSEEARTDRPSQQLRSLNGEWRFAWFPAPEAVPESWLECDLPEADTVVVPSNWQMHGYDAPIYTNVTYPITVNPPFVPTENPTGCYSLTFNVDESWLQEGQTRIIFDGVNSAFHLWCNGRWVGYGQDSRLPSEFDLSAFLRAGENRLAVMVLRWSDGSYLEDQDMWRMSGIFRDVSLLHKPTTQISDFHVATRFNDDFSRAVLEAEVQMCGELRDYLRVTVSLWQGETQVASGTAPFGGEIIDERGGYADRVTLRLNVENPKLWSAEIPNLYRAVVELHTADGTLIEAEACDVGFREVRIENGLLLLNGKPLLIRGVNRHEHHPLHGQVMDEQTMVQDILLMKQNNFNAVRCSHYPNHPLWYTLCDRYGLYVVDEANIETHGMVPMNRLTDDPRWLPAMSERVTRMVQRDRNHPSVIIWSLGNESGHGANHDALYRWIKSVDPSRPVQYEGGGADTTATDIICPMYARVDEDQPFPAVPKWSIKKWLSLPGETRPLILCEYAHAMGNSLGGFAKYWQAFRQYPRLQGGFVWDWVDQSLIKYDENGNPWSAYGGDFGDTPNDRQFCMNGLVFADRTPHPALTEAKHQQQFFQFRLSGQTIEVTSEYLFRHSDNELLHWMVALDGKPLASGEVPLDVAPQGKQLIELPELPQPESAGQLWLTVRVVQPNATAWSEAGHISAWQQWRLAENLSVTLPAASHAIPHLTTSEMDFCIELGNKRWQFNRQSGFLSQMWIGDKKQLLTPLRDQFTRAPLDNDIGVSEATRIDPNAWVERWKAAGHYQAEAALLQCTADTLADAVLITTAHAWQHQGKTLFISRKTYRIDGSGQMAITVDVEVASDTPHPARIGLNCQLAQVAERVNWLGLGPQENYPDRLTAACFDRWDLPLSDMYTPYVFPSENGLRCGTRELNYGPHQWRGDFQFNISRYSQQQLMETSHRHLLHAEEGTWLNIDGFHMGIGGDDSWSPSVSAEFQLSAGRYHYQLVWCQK
# [6] = target: T2, Scavenger receptor class B member 1 (Mus musculus, UniProt Q61009); assay: mouse SR-BI DiI-HDL transfer blockers – ldlA[mSR-BI] CHO cells, fluorescence plate reader, dry powder, set 9, dose response (AID 623880); type: functional, cell-based
# T2 sequence (Q61009 whole entry): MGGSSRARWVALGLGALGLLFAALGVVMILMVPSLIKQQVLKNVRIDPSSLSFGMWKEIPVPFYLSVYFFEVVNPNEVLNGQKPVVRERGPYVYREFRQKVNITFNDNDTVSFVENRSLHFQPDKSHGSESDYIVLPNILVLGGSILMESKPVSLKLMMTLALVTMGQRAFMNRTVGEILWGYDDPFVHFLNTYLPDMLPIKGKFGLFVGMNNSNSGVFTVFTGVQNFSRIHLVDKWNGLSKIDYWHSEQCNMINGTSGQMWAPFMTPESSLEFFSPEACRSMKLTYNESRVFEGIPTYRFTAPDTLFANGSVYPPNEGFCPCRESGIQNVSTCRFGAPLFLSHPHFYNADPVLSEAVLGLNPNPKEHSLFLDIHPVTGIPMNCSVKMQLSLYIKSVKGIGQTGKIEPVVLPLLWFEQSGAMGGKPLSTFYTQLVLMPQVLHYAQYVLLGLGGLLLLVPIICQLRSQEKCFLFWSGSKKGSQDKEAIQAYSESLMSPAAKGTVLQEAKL
# [7] = target: T2, Scavenger receptor class B member 1; assay: blockers of DiI-HDL lipid transfer via SR-BI – cell-based, ldlA[mSR-BI] CHO, DiI fluorescence, dry powder, set 10, dose response (AID 624029); type: functional
# [8] = target: Mu-type opioid receptor (Homo sapiens, UniProt P35372); assay: Late-stage results from the probe development effort to identify antagonists of OPRK1: luminescence-based cell-based dose response OPRM1 counterscreen.; type: functional
# [9] = target: Delta-type opioid receptor (Homo sapiens, UniProt P41143); assay: Late-stage results from the probe development effort to identify antagonists of OPRK1: fluorescence-based cell-based dose response OPRD1 counterscreen.; type: functional
# Sequence of Delta-type opioid receptor (P41143 whole entry): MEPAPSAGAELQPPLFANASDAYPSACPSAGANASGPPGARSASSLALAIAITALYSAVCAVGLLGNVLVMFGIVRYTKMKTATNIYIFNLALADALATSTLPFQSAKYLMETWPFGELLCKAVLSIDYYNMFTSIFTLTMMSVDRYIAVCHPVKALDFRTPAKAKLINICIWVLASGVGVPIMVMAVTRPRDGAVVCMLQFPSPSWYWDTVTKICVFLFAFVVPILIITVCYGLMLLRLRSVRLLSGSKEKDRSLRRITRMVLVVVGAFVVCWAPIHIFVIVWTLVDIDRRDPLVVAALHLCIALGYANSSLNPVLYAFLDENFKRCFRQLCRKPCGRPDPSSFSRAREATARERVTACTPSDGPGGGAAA
# [10] = test system: HEK293; assay: viability loss in HEK293T cells – cell-based, ATP luminescence, cherry-pick samples, cytotoxicity control, dose response (AID 687005); type: functional; conditions: Homo sapiens;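 further: cells exposed to compound for 48 hours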
# [11] = HEK293 Cytotoxicity Assay Measured in Cell-Based System Using Plate Reader - 7071-01_Inhibitor_Dose_CherryPick_Activity_Set2.; type: functional
# [12] = target: ATP-dependent translocase ABCB1 (Homo sapiens, UniProt P08183); assay: P-gp JC-1 efflux blockers potency – Jurkat-DNR cells, flow cytometry, follow-up, dose response (AID 489002); type: functional
# Sequence of ATP-dependent translocase ABCB1 (P08183 whole entry): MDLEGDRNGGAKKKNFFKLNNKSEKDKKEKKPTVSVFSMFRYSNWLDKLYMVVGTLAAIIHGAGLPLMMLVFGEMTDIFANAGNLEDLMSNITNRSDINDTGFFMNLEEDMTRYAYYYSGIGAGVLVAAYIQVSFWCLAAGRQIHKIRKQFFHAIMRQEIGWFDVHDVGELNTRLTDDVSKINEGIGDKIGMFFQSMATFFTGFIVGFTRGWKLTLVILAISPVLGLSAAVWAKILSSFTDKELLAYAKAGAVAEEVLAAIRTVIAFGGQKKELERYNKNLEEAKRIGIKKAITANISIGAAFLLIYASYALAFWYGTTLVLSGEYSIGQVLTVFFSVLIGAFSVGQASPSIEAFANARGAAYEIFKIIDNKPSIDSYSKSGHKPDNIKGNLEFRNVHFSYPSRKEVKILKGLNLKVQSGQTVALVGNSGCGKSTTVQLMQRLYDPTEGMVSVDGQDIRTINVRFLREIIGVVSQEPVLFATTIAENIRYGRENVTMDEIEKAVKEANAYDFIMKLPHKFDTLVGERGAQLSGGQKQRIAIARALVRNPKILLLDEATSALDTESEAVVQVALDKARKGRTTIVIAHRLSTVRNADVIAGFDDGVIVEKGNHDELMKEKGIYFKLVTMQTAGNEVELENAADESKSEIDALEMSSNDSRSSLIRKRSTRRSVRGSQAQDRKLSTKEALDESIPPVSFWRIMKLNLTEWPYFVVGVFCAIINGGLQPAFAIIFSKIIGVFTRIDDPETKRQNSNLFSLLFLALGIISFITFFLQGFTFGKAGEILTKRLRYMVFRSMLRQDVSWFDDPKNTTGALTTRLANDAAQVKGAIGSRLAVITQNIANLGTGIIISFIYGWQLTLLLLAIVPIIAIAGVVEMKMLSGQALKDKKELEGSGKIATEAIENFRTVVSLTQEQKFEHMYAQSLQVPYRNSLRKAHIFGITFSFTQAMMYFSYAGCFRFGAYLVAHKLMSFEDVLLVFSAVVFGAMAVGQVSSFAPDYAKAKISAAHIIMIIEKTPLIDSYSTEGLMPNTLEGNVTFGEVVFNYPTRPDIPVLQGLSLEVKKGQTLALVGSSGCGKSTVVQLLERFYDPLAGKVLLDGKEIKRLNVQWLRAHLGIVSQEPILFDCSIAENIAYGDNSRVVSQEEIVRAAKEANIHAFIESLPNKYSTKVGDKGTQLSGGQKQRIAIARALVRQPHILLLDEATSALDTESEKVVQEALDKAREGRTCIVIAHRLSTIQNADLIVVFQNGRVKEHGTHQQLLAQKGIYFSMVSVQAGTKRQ
# [13] = toxicity toward immortalized ovarian surface epithelium – cell-based, plate reader, dry powder samples, cytotoxicity control for PAX8 inhibitor project, dose response (AID 743045); type: functional
# [14] = IGROV1 cell killing – plate reader, dry powder samples, PAX8 inhibitor project, dose response (AID 743043); type: functional, cell-based; conditions: IGROV-1
# [15] = OVCAR-3 cell viability loss – plate reader, dry powder samples, PAX8 inhibitor project, dose response (AID 743044); type: functional, cell-based
# [16] = target: Paired box protein Pax-8 (Homo sapiens, UniProt Q06710); assay: PAX8 transcriptional activity inhibition in RMG-I – RMG-I cells, luciferase, cherry-pick, dose response (AID 687027); type: functional, cell-based;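 further: luciferase reporter driven by Pax8 target thyroperoxidase promoter measured by SteadyGlo luminescence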
# Sequence of Paired box protein Pax-8 (Q06710 whole entry): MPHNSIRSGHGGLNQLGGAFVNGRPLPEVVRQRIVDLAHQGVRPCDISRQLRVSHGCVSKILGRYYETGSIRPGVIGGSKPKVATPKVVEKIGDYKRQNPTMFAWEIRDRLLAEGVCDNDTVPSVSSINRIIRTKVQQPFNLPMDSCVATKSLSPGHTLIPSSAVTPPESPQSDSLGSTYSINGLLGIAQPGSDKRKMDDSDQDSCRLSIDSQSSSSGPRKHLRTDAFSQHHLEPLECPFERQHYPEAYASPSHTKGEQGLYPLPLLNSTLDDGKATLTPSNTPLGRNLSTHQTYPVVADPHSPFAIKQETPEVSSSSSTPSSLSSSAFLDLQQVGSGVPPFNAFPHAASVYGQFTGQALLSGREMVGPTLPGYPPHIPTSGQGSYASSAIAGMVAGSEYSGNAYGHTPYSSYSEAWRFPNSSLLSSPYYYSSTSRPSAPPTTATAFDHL
# [17] = OVCAR8 cell viability loss – plate reader, dry powder samples, PAX8 project, dose response (AID 743197); type: functional, cell-based; conditions: OVCAR-8
# [18] = target: Metabotropic glutamate receptor 5 (Rattus norvegicus, UniProt P31424); assay: Identification of a glycine sulfonamide based non-MPEP site positive allosteric potentiator (PAM) of mGlu5 (calcium_assay).; type: functional
# Sequence of Metabotropic glutamate receptor 5 (P31424 whole entry): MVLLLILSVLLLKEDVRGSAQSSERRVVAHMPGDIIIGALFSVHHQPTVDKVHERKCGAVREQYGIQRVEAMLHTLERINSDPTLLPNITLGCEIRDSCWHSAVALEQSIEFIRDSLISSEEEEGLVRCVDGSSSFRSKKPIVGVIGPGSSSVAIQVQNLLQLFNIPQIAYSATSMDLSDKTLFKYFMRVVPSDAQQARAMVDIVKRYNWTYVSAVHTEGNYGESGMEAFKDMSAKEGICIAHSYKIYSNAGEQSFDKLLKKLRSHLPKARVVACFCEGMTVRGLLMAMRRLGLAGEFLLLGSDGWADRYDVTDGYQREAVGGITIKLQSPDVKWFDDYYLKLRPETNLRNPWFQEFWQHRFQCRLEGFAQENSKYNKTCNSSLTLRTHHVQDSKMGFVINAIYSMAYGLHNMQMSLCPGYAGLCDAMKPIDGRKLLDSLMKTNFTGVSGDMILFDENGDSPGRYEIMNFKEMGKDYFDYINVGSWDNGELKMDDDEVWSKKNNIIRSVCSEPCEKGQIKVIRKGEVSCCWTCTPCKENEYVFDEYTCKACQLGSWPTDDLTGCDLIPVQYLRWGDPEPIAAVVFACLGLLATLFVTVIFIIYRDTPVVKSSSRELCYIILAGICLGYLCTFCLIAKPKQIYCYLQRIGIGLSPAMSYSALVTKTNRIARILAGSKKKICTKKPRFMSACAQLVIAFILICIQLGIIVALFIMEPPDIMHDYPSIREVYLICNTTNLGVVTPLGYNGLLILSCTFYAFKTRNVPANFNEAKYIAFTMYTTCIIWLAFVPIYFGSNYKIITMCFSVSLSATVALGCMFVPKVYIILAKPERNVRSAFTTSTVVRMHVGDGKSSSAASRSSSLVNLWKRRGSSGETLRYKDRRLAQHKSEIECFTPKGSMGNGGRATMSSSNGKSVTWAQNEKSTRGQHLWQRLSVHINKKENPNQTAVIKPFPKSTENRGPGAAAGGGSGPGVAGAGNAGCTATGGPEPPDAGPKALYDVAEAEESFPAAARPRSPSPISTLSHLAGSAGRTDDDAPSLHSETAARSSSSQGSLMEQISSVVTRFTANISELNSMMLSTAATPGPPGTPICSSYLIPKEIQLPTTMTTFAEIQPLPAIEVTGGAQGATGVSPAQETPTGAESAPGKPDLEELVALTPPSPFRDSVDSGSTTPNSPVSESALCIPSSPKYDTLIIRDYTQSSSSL
# [19] = target: Sphingosine 1-phosphate receptor 1 (Homo sapiens, UniProt P21453); assay: Late-stage counterscreen for antagonists of kappa opioid receptor 1 (OPRK1): fluorescence-based cell-based dose response assay to identify antagonists of Sphingosine 1-Phosphate Receptor 1 (S1P1).; type: functional
# Sequence of Sphingosine 1-phosphate receptor 1 (P21453 whole entry): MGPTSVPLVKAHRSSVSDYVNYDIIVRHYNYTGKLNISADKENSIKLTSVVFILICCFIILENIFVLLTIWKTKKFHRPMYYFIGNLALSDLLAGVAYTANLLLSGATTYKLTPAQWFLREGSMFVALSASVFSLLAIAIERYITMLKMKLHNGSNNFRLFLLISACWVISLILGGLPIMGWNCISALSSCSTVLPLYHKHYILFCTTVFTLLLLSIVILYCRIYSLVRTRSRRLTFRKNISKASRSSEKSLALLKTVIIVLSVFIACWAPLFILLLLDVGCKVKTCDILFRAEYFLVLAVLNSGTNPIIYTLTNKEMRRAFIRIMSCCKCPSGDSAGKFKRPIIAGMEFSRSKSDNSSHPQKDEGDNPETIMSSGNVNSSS
# T1 sequence (Q96RJ0 whole entry): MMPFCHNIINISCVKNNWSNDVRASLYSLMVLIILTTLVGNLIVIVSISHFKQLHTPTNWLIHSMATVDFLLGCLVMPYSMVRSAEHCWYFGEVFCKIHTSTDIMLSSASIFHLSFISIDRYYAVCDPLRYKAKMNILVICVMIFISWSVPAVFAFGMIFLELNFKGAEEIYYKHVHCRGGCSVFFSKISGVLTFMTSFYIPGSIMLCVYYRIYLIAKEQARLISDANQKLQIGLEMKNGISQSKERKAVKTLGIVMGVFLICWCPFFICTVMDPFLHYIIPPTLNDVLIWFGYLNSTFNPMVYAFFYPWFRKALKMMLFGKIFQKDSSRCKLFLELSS
smiles,measurement,setting,value
Cc1cccc(CSC(=N)N)c1,EC50,[1],1.21 µM (active)
same,IC50,[2],> 30 µM (inactive)
same,EC50,[3],> 30 µM (inactive)
same,IC50,[4],16.9 µM (inactive)
COc1ccc(N2CCN(C(=O)c3cc(-c4ccc(F)cc4)[nH]c3C)CC2)cc1,IC50,[5],> 80 µM (inactive)
COc1ccc2c(c1)CC(C1(O)C(=O)N(C)c3ccccc31)C2=O (centres undefined),AC50,[6],> 70 µM (inactive)
same,AC50,[7],> 70 µM (inactive)
COC(=O)c1cc(Br)cnc1N1CCC(NC2CCCCCC2)CC1,IC50,[8],4.2 µM (active)
same,IC50,[9],12 µM (inactive)
O=S(=O)(NC[C@@H]1[C@@H](c2ccccc2)[C@H](CO)N1CC1CC1)c1ccccc1,AC50,[10],> 52 µM (inactive)
same,AC50,[11],> 52 µM (inactive)
CC1CN(C(=O)c2ccoc2)CCN1c1cc(-c2ccco2)nc2cc(-c3ccccc3)nn12 (centres undefined),EC50,[12],0.0002986 µM
C[C@@H]1CCCCO[C@@H](CN(C)Cc2ccc3c(c2)OCO3)[C@H](C)CN([C@@H](C)CO)C(=O)c2cc(NC(=O)Nc3ccc(C(F)(F)F)cc3)ccc2O1,AC50,[13],63.2 µM (active)
same,AC50,[14],34 µM (active)
same,AC50,[15],15.4 µM (active)
same,AC50,[16],14.5 µM (active)
same,AC50,[17],30.2 µM (active)
CS(=O)(=O)N(Cc1nc2ccccc2[nH]1)c1ccccc1Cl,pEC50,[18],5.61
CCOC(=O)c1cc(C(=O)OC)c(C)nc1N1CCC(NC2CCCCC2O)CC1 (centres undefined),IC50,[19],> 50 µM (inactive)
